Laboratory results reported in US9266921B2, “PGC-1α-modulating peptides” (Lipotec, S.A., priority 2011, dated 2016).

Tests used:
breasts = experiment: Volume of the breasts in volunteers (Fast Optical In Vivo Topometry); design: species or system human; conditions: treatment up to 56 days
Description: 22 Caucasian volunteers between the age of 25 and 40, with healthy skin and a bra size of between 36 C to 40 E applied the composition from Example 16 to one breast and a placebo composition (the same composition from Example 16 without the peptide) to the other breast, twice a day for 56 days. The volume of the breasts was instrumentally assessed at the beginning of the study, after 14 days and 28 days of applying the compositions and at the end of the study (56 days) using the Fast Optical In Vivo Topometry Technique, which enables the volume of the breasts to be calculated in mm^3. The volume of the breasts was normalized initially at an arbitrary value of 100,000 mm^3 and the changes in volume of the breasts was measured at the different treatment times in relation to their initial volume. The statistical analysis of the evolution of the parameters measured during the study was carried out using the Student's t-test or the Wilcoxon test. The statistical significance threshold was established at 5%.

human PGC-1α promoter = experiment: Modulation of the human PGC-1α promoter activity (luciferase reporter, Hep G2); format: cell-based; conditions: Hep G2 transfected with luciferase under human PGC-1α promoter; peptide 0.5 mg/mL, 24 hours; normalized to carrier = 100%
Procedure: The modulation capacity of the promoter of human PGC-1α is evaluated by the peptides in the invention in the hepatocellular Hep G2 carcinoma cell line transfected with the luciferase gene under the regulation of the human PGC-1α promoter. The cells are seeded at a density of 20,000 cells/25 cm^2 plate) and incubated for 24 hours in RPMI-1640 complete medium, after which the peptides of the invention are added at 0.5 mg/mL and are incubated for another 24 hours. The RPMI-1640 complete medium (carrier) is used as a negative control. The measurement of the promoter's activity is carried out using the Steady-Glo® Luciferase Assay System (PROMEGA) kit following the manufacturer's instructions. The luminescence values are read on a luminometer […] and the activity of the promoter is determined, which is normalized with regards to the values of the negative control.

PGC-1α gene = experiment: Transcription of the PGC-1α gene, quantitative real time PCR in differentiating pre-adipocytes; format: cell-based; conditions: subcutaneous human adipocytes; peptide 0.1 mg/mL in PDM-2, 10 days; PGM-2 = 0%, PDM-2 = 100%
Procedure: The expression levels of the gene PGC-1α are measured by PCR in quantitative real time. A cell line of subcutaneous human pre-adipocytes is incubated in PGM™-2 medium at a density of 100,000 cells/well in a volume of 100 μL for 24 hours. Differentiation is induced by changing the medium to PDM-2 in the presence of the peptides Ac-L-Ser-L-Ile-L-Tyr-L-Val-L-Ala-L-Thr-NH2 (Ac-SEQ ID NO. 1-NH2) and Ac-L-Ser-L-Val-L-Val-L-Val-L-Arg-L-Thr-NH2 (Ac-SEQ ID NO. 2-NH2) at 0.1 mg/mL for 10 days, after which the cells were lysed and the RNA is extracted. The PCR is carried out in quantitative real time using the Taqman® Gene Expression Cells-to-CT (Applied Biosystems) kit according to the manufacturer's instructions and with the appropriate probes (TaqMan® Hs01016719_m1 probe for the PGC-1α gene and Taqman® Hs99999901_s1 probe for the eukaryotic ribosomal subunit 18S, the endogenous control of expression) and the values are normalized with regards to the maximum differentiation controls (PDM-2 medium, maximum quantity of PGC-1α mRNA) and minimal differentiation (PGM™-2 medium, minimum quantity of PGC-1α mRNA).

[1] = test system: subcutaneous human pre-adipocytes; experiment: Accumulation of lipids in subcutaneous human pre-adipocytes (AdipoRed); format: cell-based; conditions: peptide 0.1 mg/mL in PDM-2, 10 days, PGM-2 = 0%, PDM-2 = 100%
Procedure: The levels of accumulation of lipids in subcutaneous human pre-adipocytes were quantified using the AdipoRed™ (Lonza) reagent. 100,000 cells were cultivated per well in PGM™-2 medium at a final volume of 100 μL. After 24 hours, the differentiation from pre-adipocytes to mature adipocytes was induced changing the medium to PDM-2 in the presence of the different peptides at 0.1 mg/mL. After 10 days of treatment with the peptides in differentiation medium, the quantity of intracellular lipids was evaluated using the AdipoRed™ reagent following the manufacturer's instructions measuring the fluorescence of the samples (length of the excitation wave 485 nm and emission 535 nm) after adding the AdipoRed™ reagent. The fluorescence values were corrected with regards to the basal fluorescence and were normalized with regards to the maximum differentiation controls (PDM-2 medium, maximum accumulation of lipids) and minimum differentiation (PGM™-2 medium, minimum accumulation of lipids).

cellulitis (thigh) = experiment: Reduction of cellulitis in volunteers, length of the dermo-hypodermic junction line (ultrasound); format: in vivo, human; conditions: after 21 days of treatment
Description: 20 Caucasian volunteers between the age of 25 and 45, with healthy skin and affected by cellulitis levels I-III according to the pinch test applied the composition from Example 15 to one thigh and a placebo composition (the same composition from Example 15 without the peptide) to the other thigh, twice a day for 21 days. The length of the dermo-hypodermic junction line was instrumentally assessed using the Ultrasound Scanner Dermascan C® (Cortex Technology, Denmark) at the beginning of the study and at the end of the study (21 days). The measurement of the length of the dermo-hypodermic junction line is related to the formation of cellulitis and skin irregularities [Quatresooz P et al., “Cellulite histopathology and related mechanobiology”, (2006), Int. J. Cosm. Sci., 28, 207-210]. A reduction in the length of the dermo-hypodermic junction line leads to softer and more regular skin, and as such cellulitis will be less visible. The statistical analysis of the evolution of the parameters measured during the study was carried out using the Student's t-test. The statistical significance threshold was established at 5%.

Substance | effect on the volume of the breasts (breasts) | Activity of the PGC-1α promoter (%) (human PGC-1α promoter) | % relative quantity of PGC-1α mRNA (PGC-1α gene) [%] | % Accumulation of intracellular lipids [1] [%] | effect on the length of the dermo-hypodermic junction line and cellulitis (cellulitis (thigh))
Ac-L-Ser-L-Val-L-Val-L-Val-L-Arg-L-Thr-NH2 (Ac-SVVVRT-NH2) [Ac-SEQ ID NO. 2-NH2] | induces an increase in the volume of the breasts | 114 | 125 | 128 | –
Ac-L-Ser-L-Ile-L-Tyr-L-Val-L-Ala-L-Thr-NH2 (Ac-SIYVAT-NH2) [Ac-SEQ ID NO. 1-NH2] | – | 57 | 63 | 33 | induces a reduction in the length of the dermo-hypodermic junction line
